Measured values taken from ChEMBL document CHEMBL5154879, “Induction of Genes Implicated in Stress Response and Autophagy by a Novel Quinolin-8-yl-nicotinamide QN523 in Pancreatic Cancer” (J Med Chem, 2022).
Calls of active or inactive are those of the source. No cut-off for these calls is given here.

Key:
[1] = Upregulation of FAM129A gene expression in human MIA PaCa-2 cells assessed as fold change in FAM129A expression at 1 uM incubated for 24 hrs by Bru-seq analysis relative to control; format: functional
[2] = Upregulation of MAP1LC3B gene expression in human MIA PaCa-2 cells assessed as fold change in MAP1LC3B expression at 1 uM incubated for 24 hrs by Bru-seq analysis relative to control; format: functional
MIA PaCa-2 [3] = test: Antitumour activity against of human MIA PaCa-2 xenografted in NOD/SCID mouse assessed as reduction in Ki67 expression in tumor by immunohistochemical assay; format: functional
SNU-475 = test: Antiproliferative activity against human SNU-475 cells assessed as inhibition of cell growth incubated for 72 hrs by MTT assay; format: functional, cell-based; settings: SNU-475, 72 h
[4] = Cytotoxicity against HEK293 cells assessed as inhibition of cell growth incubated for 72 hrs by MTT assay; format: toxicity, cell-based; settings: human
MIA PaCa-2 [5] = test: Induction of cell cycle arrest in human MIA PaCa-2 cells assessed as accumulation of cells in G0/G1 phase at 0.5 uM incubated for 48 hrs by RNase/propidium iodide staining based flow cytometry analysis (reference value: 70.4%); format: functional
MIA PaCa-2 [6] = test: Upregulation of ATF3 gene expression in human MIA PaCa-2 cells incubated for 72 hrs by Western blot analysis; format: functional, cell-based; settings: dose <= 600.0 µM, DDE = dose-dependent effect
[7] = Toxicity in NOD/SCID mouse xenografted with human MIA PaCa-2 cells assessed as change in body weight at 30 mg/kg, ip administered five times a week starting from day 44 to 51 post first dose; format: organism-based; settings: in vivo, 1224 h, time 51 day
MIA PaCa-2 [8] = test: Antitumor activity against human MIA PaCa-2 cells xenografted in NOD/SCID mouse assessed as tumor growth delay at 20 mg/kg, ip administered five times a week starting from day 10 to 44 post first dose and measured from day 17; format: functional, organism-based; settings: time 44.0 day
[9] = Downregulation of HMG20B gene expression in human MIA PaCa-2 cells assessed as fold change in HMG20B expression at 1 uM incubated for 24 hrs by Bru-seq analysis relative to control; format: functional
[10] = Upregulation of OSGIN1 gene expression in human MIA PaCa-2 cells assessed as fold change in OSGIN1 expression at 1 uM incubated for 24 hrs by Bru-seq analysis relative to control; format: functional
MIA PaCa-2 [11] = test: Induction of apoptosis in human MIA PaCa-2 cells assessed as necrotic cells at 0.1 uM incubated for 24 hrs by Annexin V-FITC/PI staining based flow cytometry analysis (reference value: 2.7%); format: functional
MIA PaCa-2 [12] = test: Upregulation of stress response gene expression in human MIA PaCa-2 cells; format: functional, cell-based
MIA PaCa-2 [13] = test: Induction of cell cycle arrest in human MIA PaCa-2 cells assessed as accumulation of cells at S phase at 0.5 uM incubated for 48 hrs by RNase/propidium iodide staining based flow cytometry analysis (Rvb =26.9 %); format: functional
[14] = Downregulation of P1F1 gene expression in human MIA PaCa-2 cells assessed as fold change in P1F1 expression at 1 uM incubated for 24 hrs by Bru-seq analysis relative to control; format: functional
MIA PaCa-2 [15] = test: Downregulation of chromosomal proteins expression in human MIA PaCa-2 cells; format: functional, cell-based
[16] = Downregulation of LAMA5 gene expression in human MIA PaCa-2 cells assessed as fold change in LAMA5 expression at 1 uM incubated for 24 hrs by Bru-seq analysis relative to control; format: functional
[17] = Downregulation of PLKI gene expression in human MIA PaCa-2 cells assessed as fold change in PLKI expression at 1 uM incubated for 24 hrs by Bru-seq analysis relative to control; format: functional
MIA PaCa-2 [18] = test: Induction of cell cycle arrest in human MIA PaCa-2 cells assessed as accumulation of cells at S phase at 0.1 uM incubated for 24 hrs by RNase/propidium iodide staining based flow cytometry analysis (Rvb =27.6 %); format: functional
MIA PaCa-2 [19] = test: Induction of cell cycle arrest in human MIA PaCa-2 cells assessed as accumulation of cells at S phase at 0.5 uM incubated for 24 hrs by RNase/propidium iodide staining based flow cytometry analysis (Rvb =27.6 %); format: functional
[20] = Toxicity in NOD/SCID mouse xenografted with human MIA PaCa- 2 cells assessed as morphological changes in spleen at 10 to 20 mg/kg, ip administered five times a week for 44 days by H and E staining based inverted microscopic analysis; format: organism-based; settings: in vivo, 1056 h, dose 10-20 mg/kg, time 44 day
MIA PaCa-2 [21] = test: Induction of apoptosis in human MIA PaCa-2 cells assessed as late apoptotic cells at 0.1 uM incubated for 48 hrs by Annexin V-FITC/PI staining based flow cytometry analysis (reference value: 0.8%); format: functional
Jurkat = test: Antiproliferative activity against human Jurkat cells assessed as inhibition of cell growth incubated for 72 hrs by MTT assay; format: functional, cell-based
MIA PaCa-2 [22] = test: Induction of apoptosis in human MIA PaCa-2 cells assessed as early apoptotic cells at 0.5 uM incubated for 24 hrs by Annexin V-FITC/PI staining based flow cytometry analysis (reference value: 5.1%); format: functional
MIA PaCa-2 [23] = test: Upregulation of ER- related gene expression in human MIA PaCa-2 cells; format: functional, cell-based
MIA PaCa-2 [24] = test: Induction of apoptosis in human MIA PaCa-2 cells assessed as necrotic cells at 0.5 uM incubated for 24 hrs by Annexin V-FITC/PI staining based flow cytometry analysis (reference value: 2.7%); format: functional
MIA PaCa-2 [25] = test: Induction of apoptosis in human MIA PaCa-2 cells assessed as late apoptotic cells at 0.5 uM incubated for 24 hrs by Annexin V-FITC/PI staining based flow cytometry analysis (reference value: 2.04%); format: functional
MIA PaCa-2 [26] = test: Induction of apoptosis in human MIA PaCa-2 cells assessed as early apoptotic cells at 0.5 uM incubated for 48 hrs by Annexin V-FITC/PI staining based flow cytometry analysis (reference value: 1.8%); format: functional
[27] = Downregulation of STK1I gene expression in human MIA PaCa-2 cells assessed as fold change in STK1I expression at 1 uM incubated for 24 hrs by Bru-seq analysis relative to control; format: functional
[28] = Upregulation of HERPUD1 gene expression in human MIA PaCa-2 cells assessed as fold change in HERPUD1 expression at 1 uM incubated for 24 hrs by Bru-seq analysis relative to control; format: functional
MIA PaCa-2 [29] = test: Antitumor activity against human MIA PaCa-2 cells xenografted in NOD/SCID mouse assessed as tumor growth inhibition at 20 mg/kg, ip administered five times a week starting from day 10 to 44 and measured from day 17 relative to control; format: functional; settings: MIA PaCa-2, 816 h, time 34 day, read-out: TGI
MIA PaCa-2 [30] = test: Induction of apoptosis in human MIA PaCa-2 cells assessed as necrotic cells at 0.1 uM incubated for 48 hrs by Annexin V-FITC/PI staining based flow cytometry analysis (reference value: 1.07%); format: functional
[31] = Upregulation of ARG2 gene expression in human MIA PaCa-2 cells assessed as fold change in ARG2 expression at 1 uM incubated for 24 hrs by Bru-seq analysis relative to control; format: functional

O=C(Nc1cccc2cccnc12)c1cnccn1
fold change (FC) [1]: 16.8 | fold change (FC) [2]: 6.8 | Activity (MIA PaCa-2 [3]): Active | IC50 (SNU-475): 2.67 µM | IC50 at 72 h [4]: 0.15 µM | Activity (MIA PaCa-2 [5]): 31.2% | Activity (MIA PaCa-2 [6]): Dde | Activity [7]: Non-Toxic | Activity (MIA PaCa-2 [8]): Active | fold change (FC) [9]: 0.33 | fold change (FC) [10]: 7.8 | Activity (MIA PaCa-2 [11]): 2.2% | Activity (MIA PaCa-2 [12]): Active | Activity (MIA PaCa-2 [13]): 57.3% | fold change (FC) [14]: 0.28 | Activity (MIA PaCa-2 [15]): Active | fold change (FC) [16]: 0.42 | fold change (FC) [17]: 0.47 | Activity (MIA PaCa-2 [18]): 33.2% | Activity (MIA PaCa-2 [19]): 45.1% | Activity [20]: Non-Toxic | Activity (MIA PaCa-2 [21]): 1.5% | IC50 (Jurkat): 0.1 µM | Activity (MIA PaCa-2 [22]): 10.1% | Activity (MIA PaCa-2 [23]): Active | Activity (MIA PaCa-2 [24]): 1.4% | Activity (MIA PaCa-2 [25]): 2.1% | Activity (MIA PaCa-2 [26]): 2.2% | fold change (FC) [27]: 0.4 | fold change (FC) [28]: 9.8 | inhibition in vivo at 20 mg/kg (MIA PaCa-2 [29]): 80% | Activity (MIA PaCa-2 [30]): 1.1% | fold change (FC) [31]: 12
